Results published in the CheMixHub viscosity set.
Several values for one entry are separate records, joined by “and”; a condition that tells them apart may be missing. Equal entries are not always repeated.

Test: xn = mol fraction of the nth substance listed

CCCCCOC(C)=O + Cc1cccc(O)c1
Settings	viscosity [mPa·s]
298.15 K, 101 kPa, x2 = 0.5	1.167

Cc1ccccc1O + Cc1cccc(O)c1
viscosity [mPa·s]
Settings	298.15 K	313.15 K	323.15 K
101 kPa, x1 = 0.1537	12.16	–	–
101 kPa, x1 = 0.3061	11.09	–	–
101 kPa, x1 = 0.3536	10.75	–	–
101 kPa, x1 = 0.3954	10.5	–	–
101 kPa, x1 = 0.506	9.939	–	–
101 kPa, x1 = 0.6371	9.208	–	–
101 kPa, x1 = 0.7608	8.582	–	–
101 kPa, x1 = 0.8803	8.086	–	–
101.3 kPa, x2 = 0.1	–	4.379	3.086
101.3 kPa, x2 = 0.2	–	4.539	3.145
101.3 kPa, x2 = 0.3	–	4.689	3.235
101.3 kPa, x2 = 0.4	–	4.861	3.32
101.3 kPa, x2 = 0.5	–	5.048	3.417
101.3 kPa, x2 = 0.6	–	5.248	3.543
101.3 kPa, x2 = 0.7	–	5.462	3.666
101.3 kPa, x2 = 0.8	–	5.693	3.805
101.3 kPa, x2 = 0.9	–	5.966	3.949

CC(C)(C)c1ccccc1 + Cc1ccccc1
303.15 K, 101.3 kPa
Settings	viscosity [mPa·s]
x2 = 0.0457	0.974
x2 = 0.0865	0.949
x2 = 0.2449	0.8605
x2 = 0.3937	0.7829
x2 = 0.4453	0.7568
x2 = 0.5167	0.7206
x2 = 0.6672	0.6507
x2 = 0.7678	0.6057
x2 = 0.8687	0.5626
x2 = 0.957	0.5317
x2 = 0.9788	0.5253

CCCCCC + Cc1ccccc1
Settings	viscosity
298.15 K, 101 kPa, x1 = 0.1	0.5021 mPa·s
298.15 K, 101 kPa, x1 = 0.121	0.504 mPa·s
298.15 K, 101 kPa, x1 = 0.2	0.4602 mPa·s
298.15 K, 101 kPa, x1 = 0.211	0.471 mPa·s
298.15 K, 101 kPa, x1 = 0.299	0.443 mPa·s
298.15 K, 101 kPa, x1 = 0.3	0.4254 mPa·s
298.15 K, 101 kPa, x1 = 0.4	0.3964 mPa·s
298.15 K, 101 kPa, x1 = 0.5	0.372 mPa·s
298.15 K, 101 kPa, x1 = 0.6	0.3513 mPa·s and 0.37 mPa·s
298.15 K, 101 kPa, x1 = 0.7	0.3336 mPa·s
298.15 K, 101 kPa, x1 = 0.712	0.349 mPa·s
298.15 K, 101 kPa, x1 = 0.799	0.335 mPa·s
298.15 K, 101 kPa, x1 = 0.8	0.3186 mPa·s
298.15 K, 101 kPa, x1 = 0.9	0.3059 mPa·s
298.15 K, 101 kPa, x2 = 0.1483	0.321 mPa·s
298.15 K, 101 kPa, x2 = 0.1826	0.333 mPa·s
298.15 K, 101 kPa, x2 = 0.2169	0.34 mPa·s
298.15 K, 101 kPa, x2 = 0.2524	0.348 mPa·s
298.15 K, 101 kPa, x2 = 0.2897	0.36 mPa·s
298.15 K, 101 kPa, x2 = 0.3286	0.366 mPa·s
298.15 K, 101 kPa, x2 = 0.3707	0.377 mPa·s
298.15 K, 101 kPa, x2 = 0.4105	0.3865 mPa·s
298.15 K, 101 kPa, x2 = 0.4556	0.3985 mPa·s
298.15 K, 101 kPa, x2 = 0.5039	0.4115 mPa·s
298.15 K, 101 kPa, x2 = 0.552	0.426 mPa·s
298.15 K, 101 kPa, x2 = 0.6002	0.44 mPa·s
298.15 K, 101 kPa, x2 = 0.6539	0.457 mPa·s
298.15 K, 101 kPa, x2 = 0.6976	0.471 mPa·s
298.15 K, 101 kPa, x2 = 0.7444	0.486 mPa·s
298.23 K, 100 kPa, x1 = 0.5	0.3708 mPa·s
298.28 K, 100 kPa, x1 = 0.25	0.4404 mPa·s
298.3 K, 100 kPa, x1 = 0.75	0.3227 mPa·s
303.15 K, 101.33 kPa, x1 = 0.0826	0.4983 mPa·s
303.15 K, 101.33 kPa, x1 = 0.1685	0.4637 mPa·s
303.15 K, 101.33 kPa, x1 = 0.2578	0.4362 mPa·s
303.15 K, 101.33 kPa, x1 = 0.3509	0.4117 mPa·s
303.15 K, 101.33 kPa, x1 = 0.4477	0.3884 mPa·s
303.15 K, 101.33 kPa, x1 = 0.5487	0.3671 mPa·s
303.15 K, 101.33 kPa, x1 = 0.6541	0.3492 mPa·s
303.15 K, 101.33 kPa, x1 = 0.7643	0.3299 mPa·s
303.15 K, 101.33 kPa, x1 = 0.8795	0.3136 mPa·s
308.15 K, 101 kPa, x1 = 0.121	0.448 mPa·s
308.15 K, 101 kPa, x1 = 0.211	0.42 mPa·s
308.15 K, 101 kPa, x1 = 0.299	0.395 mPa·s
308.15 K, 101 kPa, x1 = 0.448	0.361 mPa·s
308.15 K, 101 kPa, x1 = 0.6	0.332 mPa·s
308.15 K, 101 kPa, x1 = 0.712	0.314 mPa·s
308.15 K, 101 kPa, x1 = 0.799	0.302 mPa·s
313.15 K, 101.33 kPa, x1 = 0.0826	0.4542 mPa·s
313.15 K, 101.33 kPa, x1 = 0.1685	0.4265 mPa·s
313.15 K, 101.33 kPa, x1 = 0.2578	0.4033 mPa·s
313.15 K, 101.33 kPa, x1 = 0.3509	0.3782 mPa·s
313.15 K, 101.33 kPa, x1 = 0.4477	0.3592 mPa·s
313.15 K, 101.33 kPa, x1 = 0.5487	0.3375 mPa·s
313.15 K, 101.33 kPa, x1 = 0.6541	0.3202 mPa·s
313.15 K, 101.33 kPa, x1 = 0.7643	0.3043 mPa·s
313.15 K, 101.33 kPa, x1 = 0.8795	0.2896 mPa·s
323.15 K, 101 kPa, x1 = 0.121	0.382 mPa·s
323.15 K, 101 kPa, x1 = 0.211	0.36 mPa·s
323.15 K, 101 kPa, x1 = 0.299	0.341 mPa·s
323.15 K, 101 kPa, x1 = 0.448	0.314 mPa·s
323.15 K, 101 kPa, x1 = 0.6	0.292 mPa·s
323.15 K, 101 kPa, x1 = 0.712	0.278 mPa·s
323.15 K, 101 kPa, x1 = 0.799	0.255 mPa·s
323.15 K, 101.33 kPa, x1 = 0.0826	0.4006 mPa·s
323.15 K, 101.33 kPa, x1 = 0.1685	0.3747 mPa·s
323.15 K, 101.33 kPa, x1 = 0.2578	0.3545 mPa·s
323.15 K, 101.33 kPa, x1 = 0.3509	0.3354 mPa·s
323.15 K, 101.33 kPa, x1 = 0.4477	0.3184 mPa·s
323.15 K, 101.33 kPa, x1 = 0.5487	0.3022 mPa·s
323.15 K, 101.33 kPa, x1 = 0.6541	0.2867 mPa·s
323.15 K, 101.33 kPa, x1 = 0.7643	0.2736 mPa·s
323.15 K, 101.33 kPa, x1 = 0.8795	0.262 mPa·s

Cc1ccccc1O + Cc1ccccc1
308.15 K, 101 kPa
Settings	viscosity [mPa·s]
x1 = 0.1491	0.6
x1 = 0.224	0.7051
x1 = 0.307	0.8217
x1 = 0.397	0.9904
x1 = 0.5325	1.332
x1 = 0.6095	1.604
x1 = 0.6968	2.034
x1 = 0.7755	2.544
x1 = 0.87	3.369

CCCCCOC(C)=O + Cc1ccccc1O
Settings	viscosity [mPa·s]
298.15 K, 101 kPa, x2 = 0.5	1.165

CC1CCC(C)O1 (stereo not drawn) + ClC1CCCCC1
viscosity [mPa·s], 101.3 kPa
Settings	x1 = 0.0973	x1 = 0.2014	x1 = 0.3026	x1 = 0.3986	x1 = 0.4986	x1 = 0.6031	x1 = 0.7002	x1 = 0.7977	x1 = 0.8986
298.15 K	1.36	1.179	1.033	0.9191	0.818	0.7279	0.6563	0.5937	0.5366
313.15 K	1.073	0.9412	0.8337	0.7486	0.6724	0.6054	0.551	0.499	0.452

CCCCCOC(C)=O + ClC(Cl)(Cl)Cl
303.15 K, 101.3 kPa
Settings	viscosity [mPa·s]
x1 = 0.0945	0.8029
x1 = 0.1925	0.7788
x1 = 0.3042	0.7586
x1 = 0.4017	0.7482
x1 = 0.5021	0.7413
x1 = 0.6003	0.7378
x1 = 0.7016	0.7385
x1 = 0.808	0.7427
x1 = 0.9075	0.746
